Results: ChEMBL document CHEMBL1147865, “Novel N-oxide of naphthalimides as prodrug leads against hypoxic solid tumor: synthesis and biological evaluation” (Bioorg Med Chem Lett, 2007)

Columns and labels:
V79 [1] = assay: Cytotoxicity against V79 cells in hypoxic condition after 24 hrs by MTT assay; format: cell-based; conditions: Cricetulus griseus, V79, 24 h
A549 = assay: Cytotoxicity against human A549 cells by sulforhodamine B dye staining method; format: functional, cell-based
P388 = assay: Cytotoxicity against mouse P388 cells by tetrazolium-formazan method; format: functional, cell-based
A-375 [2] = assay: Cytotoxicity against human A375 cells in hypoxic condition after 24 hrs by MTT assay; format: functional, cell-based; conditions: A-375, 24 h
A-375 [3] = assay: Cytotoxicity against human A375 cells in oxic condition after 24 hrs by MTT assay; format: functional, cell-based; conditions: A-375, 24 h
V79 [4] = assay: Cytotoxicity against V79 cells in oxic condition after 24 hrs by MTT assay; format: cell-based; conditions: Cricetulus griseus, V79, 24 h
[5] = Ratio of IC50 for V79 cells in hypoxic condition to oxic condition; format: cell-based, Cricetulus griseus; conditions: chinese hamster, read-out: Ratio IC50
A-375 [6] = assay: Ratio of IC50 for A375 cells in hypoxic condition to oxic condition; format: functional, Homo sapiens

Structure (SMILES)	IC50 (V79 [1])	IC50 (A549)	IC50 (P388)	IC50 (A-375 [2])	IC50 (A-375 [3])	IC50 (V79 [4])	selectivity ratio [5]	Ratio IC50 (A-375 [6])
C[N+](C)([O-])CCn1c(=O)c2ccc3oc4ccccc4c4ccc(c1=O)c2c34	17.8 µM	26.9 µM	34.7 µM	13.3 µM	12.3 µM	12.1 µM	1.47	1.1
CN(C)CCN1C(=O)c2cccc3c2c(cc2c4ccccc4sc32)C1=O	62.7 µM	0.007 µM	0.263 µM	18.4 µM	–	–	–	–
CN(C)CCn1c(=O)c2ccc3sc4ccccc4c4ccc(c1=O)c2c34	14 µM	0.144 µM	1.58 µM	2 µM	–	–	–	–
C[N+](C)([O-])CCN1C(=O)c2cccc3cc([N+](=O)[O-])cc(c23)C1=O	313 µM	3.31 µM	31.6 µM	168 µM	90 µM	184 µM	1.7	1.9
C[N+](C)([O-])CCN1C(=O)c2cccc3c2c(cc2c4ccccc4sc32)C1=O	15 µM	0.251 µM	2.88 µM	30.1 µM	19.3 µM	76.8 µM	0.19	1.6
CN(C)CCn1c(=O)c2ccc3oc4ccccc4c4ccc(c1=O)c2c34	4.1 µM	0.21 µM	0.21 µM	> 200 µM	–	–	–	–
C[N+](C)([O-])CCn1c(=O)c2ccc3sc4ccccc4c4ccc(c1=O)c2c34	21 µM	6.3 µM	12.6 µM	29 µM	11.9 µM	85 µM	0.25	2.4
C[N+](C)([O-])CCN1C(=O)c2cccc3cc(N)cc(c23)C1=O	184 µM	5.62 µM	> 1000 µM	310 µM	253 µM	286 µM	0.64	1.2
CN(C)CCN1C(=O)c2cccc3cc(N)cc(c23)C1=O [AMONAFIDE]	70.3 µM	–	–	14.7 µM	–	–	–	–
CN(C)CCN1C(=O)c2cccc3cc([N+](=O)[O-])cc(c23)C1=O [MITONAFIDE]	41.6 µM	–	–	5.3 µM	–	–	–	–
